Read-outs that look alike come from different tables or passages of the source.
How the values were obtained:
PC3 cells = experiment: In vitro cell proliferation assay; format: cell-based; details: Homo sapiens
Experimental: Efficacy of Formula I compounds were measured by a cell proliferation assay employing the following protocol: 1. An aliquot of 20 μl of cell culture containing about 10^3 cells (PC3 or MDAMB361.1) in medium was deposited in each well of a 384-well, opaque-walled plate. 2. Control wells were prepared containing medium and without cells; Cells were allowed to settle overnight. 3. The compound was added to the experimental wells and incubated for 3 days. 4. The plates were equilibrated to room temperature for approximately 30 minutes. 5. A volume of CellTiter-Glo Reagent equal to the volume of cell culture medium present in each well was added. 6. The contents were mixed for 2 minutes on an orbital shaker to induce cell lysis. 7. The plate was incubated at room temperature for 20 minutes to stabilize the luminescence signal. […] Luminescence was recorded and reported in graphs as RLU=relative luminescence units. Alternatively, cells were seeded at optimal density in a 96 well plate and incubated for 4 days in the presence of test compound. […] IC50 values were calculated using a sigmoidal dose response curve fit.

[1] = biological target: T1, mTOR kinase (mTOR(1360-2549)+GBL) (Homo sapiens, UniProt P42345); experiment: In vitro mTOR kinase assay (TR-FRET); format: biochemical; details: read-out: activity level (Ki) in the mTOR kinase assay
T1 construct: mTOR(1360-2549)+GBL, prepared in-house; made in house
T1 sequence (P42345 1360-2549): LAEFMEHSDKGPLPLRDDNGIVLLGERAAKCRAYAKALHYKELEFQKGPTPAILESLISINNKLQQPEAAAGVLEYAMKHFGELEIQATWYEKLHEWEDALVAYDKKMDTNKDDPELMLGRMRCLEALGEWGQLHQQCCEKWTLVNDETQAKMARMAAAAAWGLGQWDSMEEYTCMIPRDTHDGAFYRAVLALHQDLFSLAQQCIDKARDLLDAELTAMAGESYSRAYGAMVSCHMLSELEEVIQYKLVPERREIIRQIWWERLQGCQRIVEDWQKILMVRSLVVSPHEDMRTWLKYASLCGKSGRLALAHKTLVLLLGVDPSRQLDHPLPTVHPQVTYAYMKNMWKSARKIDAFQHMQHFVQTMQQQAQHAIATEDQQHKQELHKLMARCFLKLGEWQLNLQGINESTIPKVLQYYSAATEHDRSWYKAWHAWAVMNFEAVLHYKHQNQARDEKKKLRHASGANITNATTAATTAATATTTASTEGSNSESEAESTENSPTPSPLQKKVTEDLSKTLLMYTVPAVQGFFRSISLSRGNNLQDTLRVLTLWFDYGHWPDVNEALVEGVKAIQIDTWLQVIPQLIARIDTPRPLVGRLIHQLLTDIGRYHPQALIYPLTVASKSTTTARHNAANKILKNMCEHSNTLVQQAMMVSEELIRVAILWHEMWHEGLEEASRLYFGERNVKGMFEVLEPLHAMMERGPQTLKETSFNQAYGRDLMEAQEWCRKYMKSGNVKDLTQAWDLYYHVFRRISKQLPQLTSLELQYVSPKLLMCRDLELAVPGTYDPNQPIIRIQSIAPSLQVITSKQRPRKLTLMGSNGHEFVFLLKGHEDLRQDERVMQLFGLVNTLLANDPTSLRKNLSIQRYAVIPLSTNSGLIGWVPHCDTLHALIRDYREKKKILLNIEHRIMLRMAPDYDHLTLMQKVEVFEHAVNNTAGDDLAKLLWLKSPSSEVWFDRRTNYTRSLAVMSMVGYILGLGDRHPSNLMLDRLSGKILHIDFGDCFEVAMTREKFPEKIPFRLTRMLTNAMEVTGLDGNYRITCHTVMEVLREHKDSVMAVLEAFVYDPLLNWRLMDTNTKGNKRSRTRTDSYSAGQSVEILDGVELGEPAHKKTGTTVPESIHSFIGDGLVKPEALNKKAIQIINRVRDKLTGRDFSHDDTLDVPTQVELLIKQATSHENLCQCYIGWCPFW
T1 sequence (Q9BVC4 whole entry partner): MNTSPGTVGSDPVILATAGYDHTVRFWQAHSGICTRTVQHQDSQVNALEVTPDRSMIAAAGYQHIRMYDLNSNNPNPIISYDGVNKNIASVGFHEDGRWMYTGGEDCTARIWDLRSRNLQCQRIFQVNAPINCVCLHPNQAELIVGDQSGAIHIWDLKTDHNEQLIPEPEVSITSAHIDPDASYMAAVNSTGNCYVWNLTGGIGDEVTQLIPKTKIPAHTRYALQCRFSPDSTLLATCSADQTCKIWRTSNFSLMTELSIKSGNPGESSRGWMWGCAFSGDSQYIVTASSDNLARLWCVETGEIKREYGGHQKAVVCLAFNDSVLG
Experimental: (§1) The reaction is stopped by an addition of a Terbium-labeled phospho-specific antibody, e.g., Tb-labeled anti-p4E-BP1 T37/T46, (Invitrogen, product #PR8835A), EDTA, and TR-FRET buffer solution (Invitrogen, Product #PR3756B). Product formation is detected by way of time-resolved fluorescence resonance energy transfer (TR-FRET), which occurs when the phosphorylated substrate and labeled antibody are in close proximity due to phospho-specific binding. Enzymatic activity is measured as an increase in TR-FRET signal using a Perkin Elmer Envision plate reader.
Compound activity is tested in 10 point dose curves starting at the highest final concentration of 10 uM. They are serially diluted in 100% DMSO prior to further dilution with assay buffer. […] 8 μL of solution containing 2 nM Tb-anti-p4E-BP1 antibody & 10 mM EDTA diluted TR-FRET buffer is then added and incubated for 30 minutes to stop the reaction. The plate is scanned with the Envision plate reader. Ki values are calculated in Assay Explorer using the Morrison ATP-competitive tight binding equation for Ki apparent determination.

[2] = test system: AKT serine-473 phosphorylation in EGF-stimulated PC-3 cells; experiment: In vitro phospho-AKT serine 473 cellular assay; format: cell-based; details: Homo sapiens
Experimental: The PC-3 cell line is maintained in RPMI1640 media supplemented with 10% FBS, 2 mM Glutamine, and 10 mM HEPES pH 7.4 at 37° C. in a 5% CO2 humidified incubator.
Cells are seeded in 384-well plates at 7,000 cells/well in […] growth media. After 24 hours, growth media is removed and replaced with RPMI1640 containing no FBS. Cells are treated with 10 concentrations of test compounds or DMSO alone for controls (final DMSO concentration 0.5%) and incubated at 37° C. for 30 minutes. Cells are then stimulated for 10 minutes with 100 ng/ml EGF (final concentration). One column of controls is not stimulated with EGF to observe the signal ratio between stimulated and non-stimulated cells. After 10 minutes, compounds and stimulation media are removed and replaced with 25 μl lysis buffer containing protease inhibitors and phosphatase inhibitors. This buffer contains detergent to bring about cellular disruption. […] Following the transfer of lysate to the MSD plate, AKT in the lysate is captured on the coated antibody by incubation on a shaker at 4° C. for 16 hours. Following the capture step the plate is washed and then incubated for two hours with an antibody to S473 phosphorylated AKT which is conjugated with a Sulfo-Tag. This tag gives a signal when in proximity to the electrode on the base of the MSD plate. Binding the tagged antibody to the captured protein allow detection on a MSD reader.
EC50 values are calculated using MDL Assay Explorer 3.0.1.8 fitting a sigmoidal curve with a variable slope.

PI3K-alpha = biological target: T2, PI3K-alpha (Homo sapiens, UniProt P42336); format: biochemical
T2 construct: purchased Upstate Cell Signaling Solutions
T2 sequence (P42336 whole entry, species assumed): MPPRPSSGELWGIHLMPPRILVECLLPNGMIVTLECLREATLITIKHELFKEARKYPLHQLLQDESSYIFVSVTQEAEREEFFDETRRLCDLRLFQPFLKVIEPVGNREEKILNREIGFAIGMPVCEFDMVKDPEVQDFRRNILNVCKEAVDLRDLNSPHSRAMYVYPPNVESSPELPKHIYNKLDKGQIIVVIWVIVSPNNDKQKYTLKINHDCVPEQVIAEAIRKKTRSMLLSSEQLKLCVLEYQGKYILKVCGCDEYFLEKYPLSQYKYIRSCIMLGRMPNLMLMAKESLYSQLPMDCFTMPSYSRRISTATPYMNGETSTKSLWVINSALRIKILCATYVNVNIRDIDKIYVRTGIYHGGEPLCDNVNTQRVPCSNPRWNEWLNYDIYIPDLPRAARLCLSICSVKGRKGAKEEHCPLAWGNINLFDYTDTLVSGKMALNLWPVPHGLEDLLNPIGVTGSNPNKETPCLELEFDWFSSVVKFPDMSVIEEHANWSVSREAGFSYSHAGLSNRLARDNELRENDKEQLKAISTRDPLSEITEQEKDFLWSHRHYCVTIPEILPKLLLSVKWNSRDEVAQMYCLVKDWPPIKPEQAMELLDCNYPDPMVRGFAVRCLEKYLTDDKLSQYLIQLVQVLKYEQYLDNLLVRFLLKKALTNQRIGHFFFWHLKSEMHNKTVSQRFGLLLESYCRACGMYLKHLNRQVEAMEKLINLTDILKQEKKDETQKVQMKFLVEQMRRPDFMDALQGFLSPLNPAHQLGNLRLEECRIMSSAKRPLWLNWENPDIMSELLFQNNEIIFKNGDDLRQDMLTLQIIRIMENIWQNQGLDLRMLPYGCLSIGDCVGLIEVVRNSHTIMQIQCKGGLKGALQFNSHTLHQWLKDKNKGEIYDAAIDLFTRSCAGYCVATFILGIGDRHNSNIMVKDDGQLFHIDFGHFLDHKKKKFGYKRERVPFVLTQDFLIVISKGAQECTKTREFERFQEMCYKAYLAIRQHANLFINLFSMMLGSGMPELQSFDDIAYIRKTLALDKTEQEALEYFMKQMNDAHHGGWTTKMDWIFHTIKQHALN
T2 sequence (P27986 whole entry partner, species assumed): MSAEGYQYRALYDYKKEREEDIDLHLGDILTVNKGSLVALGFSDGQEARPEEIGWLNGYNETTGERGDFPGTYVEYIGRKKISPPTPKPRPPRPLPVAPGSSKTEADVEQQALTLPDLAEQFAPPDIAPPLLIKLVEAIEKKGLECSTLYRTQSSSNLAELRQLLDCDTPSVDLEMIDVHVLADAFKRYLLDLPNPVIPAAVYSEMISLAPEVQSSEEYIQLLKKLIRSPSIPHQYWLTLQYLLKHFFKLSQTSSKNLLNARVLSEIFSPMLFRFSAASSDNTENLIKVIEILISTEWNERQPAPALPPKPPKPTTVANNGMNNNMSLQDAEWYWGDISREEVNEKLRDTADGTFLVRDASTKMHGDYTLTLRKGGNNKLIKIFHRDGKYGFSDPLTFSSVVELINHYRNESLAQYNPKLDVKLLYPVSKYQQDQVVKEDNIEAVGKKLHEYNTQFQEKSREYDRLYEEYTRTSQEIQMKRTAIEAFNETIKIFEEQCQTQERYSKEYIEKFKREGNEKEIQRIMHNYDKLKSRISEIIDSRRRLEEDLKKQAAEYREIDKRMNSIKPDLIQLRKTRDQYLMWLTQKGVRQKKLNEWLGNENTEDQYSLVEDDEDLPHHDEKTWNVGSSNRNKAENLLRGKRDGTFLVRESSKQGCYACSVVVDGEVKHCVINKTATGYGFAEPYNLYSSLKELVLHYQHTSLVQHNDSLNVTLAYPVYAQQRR
Experimental: as §1, with “The kinase activity of mTOR enzyme is assessed by incubating purified recombinant enzyme (mTOR(1360-2549)+GBL, prepared in-house) in a reaction mixture containing ATP, MnCl2, and a fluorescently labeled mTOR substrate, e.g., GFP-4E-BP1 (Invitrogen, product #PR8808A). The” for “The”, “reader. The assay is performed in a 384-well Proxiplate Plus (Perkin Elmer. Product #6008269) using the following protocol:” for “reader.”
Compound activity is tested in 10 point dose curves starting at the highest final concentration of 10 uM. They are serially diluted in 100% DMSO prior to further dilution with assay buffer. The reaction mixture (8 uls) containing 0.25 nM mTOR+GBL enzyme, 400 nM GFP-4E-BP1, 8 uM ATP, 50 mM Hepes pH 7.5, 0.01% Tween 20, 10 mM MnCl2, 1 mM EGTA, 1 mM DTT, 1% DMSO (+/−compound) is incubated at room temperature for 30 minutes. 8 μL of solution containing 2 nM Tb-anti-p4E-BP1 antibody & 10 mM EDTA diluted TR-FRET buffer is then added and incubated for 30 minutes to stop the reaction. The plate is scanned with the Envision plate reader. Ki values are calculated in Assay Explorer using the Morrison ATP-competitive tight binding equation for Ki apparent determination.
Binding Assays: Initial polarization experiments were performed on an Analyst HT 96-384 (Molecular Devices Corp, Sunnyvale, Calif.). […] After an incubation time of 30 minutes at room temperature, the reactions were stopped by the addition of GRP-1 and PIP3-TAMRA probe (Echelon-Inc., Salt Lake City, Utah) 100 nM and 5 nM final concentrations respectively. […] This experiment also establishes the appropriate protein concentration to use in subsequent competition experiments with inhibitors.
After an incubation time of 30 minutes at room temperature, the reactions were stopped by the addition of GRP-1 and PIP3-TAMRA probe (Echelon-Inc., Salt Lake City, Utah) 100 nM and 5 nM final concentrations respectively.

[3] = PC-3, with PC3 cells, read-out: IC50 value, cell proliferation
[4] = PC-3, read-out: IC50 value, cell proliferation
[5] = recombinant mTOR+GBL, 8 uM ATP, Ki apparent
[6] = PC-3 cells stimulated with EGF, read-out: EC50 activity level, inhibition of S473 AKT phosphorylation

| SMILES | IC50 (PC3 cells; [3]) | Ki [1] | Ki [1, 5] | further results |
| --- | --- | --- | --- | --- |
| CCCCc1nc2nc(-c3ccc(NC(=O)NCC)cc3)nc(N3CCOC[C@@H]3C)c2n1C [Compound 107, (S)-1-(4-(8-butyl-7-methyl-6-(3-methylmorpholino)-7H-purin-2-yl)phenyl)-3-ethylurea] | 2.4 µM | 0.053 µM |  |  |
| CCNC(=O)Nc1ccc(-c2nc(N3CCOC[C@@H]3C)c3c(n2)nc(C(C)(C)O)n3C)cc1 [Compound 108, (S)-1-ethyl-3-(4-(8-(2-hydroxypropan-2-yl)-7-methyl-6-(3-methylmorpholino)-7H-purin-2-yl)phenyl)urea] |  |  | 0.03 µM | IC50 (PC3 cells; [4]): 8 µM; EC50 [2, 6]: 3.5 µM |
| C[C@H]1COCCN1c1nc(-c2ccc(NC(=O)NC3COC3)cc2)nc2cnn(C)c12 [Compound 113, (S)-1-(4-(1-methyl-7-(3-methylmorpholino)-1H-pyrazolo[4,3-d]pyrimidin-5-yl)phenyl)-3-(oxetan-3-yl)urea] | 5.9 µM | 0.039 µM |  |  |
| CCNC(=O)Nc1ccc(-c2nc(N3C[C@@H]4C[C@H]3CO4)c3c(cnn3C)n2)cc1 [Compound 109, 1-(4-(7-((1S,4S)-2-oxa-5-azabicyclo[2.2.1]heptan-5-yl)-1-methyl-1H-pyrazolo[4,3-d]pyrimidin-5-yl)phenyl)-3-ethylurea] |  | 0.008 µM |  | IC50 (PC3 cells; [4]): 0.399 µM |
| CCNC(=O)Nc1ccc(-c2nc(N3CCCOCC3)c3c(ncn3C)n2)cc1 [Compound 105, 1-ethyl-3-(4-(7-methyl-6-(1,4-oxazepan-4-yl)-7H-purin-2-yl)phenyl)urea] |  |  | 0.121 µM |  |
| CCNC(=O)Nc1ccc(-c2nc(N3CCOCC3)c3c(ncn3C)n2)cc1 [Compound 101, 1-ethyl-3-(4-(7-methyl-6-morpholino-7H-purin-2-yl)phenyl)urea] |  | 0.143 µM |  |  |
| CCNC(=O)Nc1ccc(-c2nc(N3CCOC[C@@H]3CC)c3c(ncn3C)n2)cc1 [Compound 104, (S)-1-ethyl-3-(4-(6-(3-ethylmorpholino)-7-methyl-7H-purin-2-yl)phenyl)urea] | 0.737 µM |  | 0.004 µM | EC50 ([2]; PC-3, read-out: EC50 activity level, inhibition of S473 AKT phosphorylation): 0.069 µM |
| CCNC(=O)Nc1ccc(-c2nc(N3CCOC[C@@H]3CC)c3c(n2)c(C)nn3C)cc1 [Compound 112, (S)-1-ethyl-3-(4-(7-(3-ethylmorpholino)-1,3-dimethyl-1H-pyrazolo[4,3-d]pyrimidin-5-yl)phenyl)urea] | 0.086 µM |  | 0.002 µM |  |
| CCNC(=O)Nc1ccc(-c2nc(N3CCOC[C@H]3C)c3c(ncn3C)n2)cc1 [Compound 103, (R)-1-ethyl-3-(4-(7-methyl-6-(3-methylmorpholino)-7H-purin-2-yl)phenyl)urea] | 10 µM |  |  |  |
| CCNC(=O)Nc1ccc(-c2nc(N3CCOC[C@@H]3CC)c3c(cnn3C)n2)cc1 [Compound 111, (S)-1-ethyl-3-(4-(7-(3-ethylmorpholino)-1-methyl-1H-pyrazolo[4,3-d]pyrimidin-5-yl)phenyl)urea] | 2.9 µM | 0.028 µM |  |  |
| CCNC(=O)Nc1ccc(-c2nc(N3CCOC[C@@H]3C)c3c(cnn3C)n2)cc1 [Compound 110, (S)-1-ethyl-3-(4-(1-methyl-7-(3-methylmorpholino)-1H-pyrazolo[4,3-d]pyrimidin-5-yl)phenyl)urea] |  | 0.001 µM |  | IC50 (PC3 cells; [4]): 0.131 µM; selectivity for mTOR kinase over related PI3 kinase (PI3K-alpha) (PI3K-alpha): 1250 × |
| CCNC(=O)Nc1ccc(-c2nc(N3CCOC[C@@H]3C)c3ncn(C)c3n2)cc1 [(S)-1-ethyl-3-(4-(9-methyl-6-(3-methylmorpholino)-9H-purin-2-yl)phenyl)urea, reference compound] |  |  |  | selectivity for mTOR kinase over related PI3 kinase (PI3K-alpha) (PI3K-alpha): 29 × |
| CCNC(=O)Nc1ccc(-c2nc(N3CCOC[C@@H]3C)c3ncn(CC)c3n2)cc1 [(S)-1-ethyl-3-(4-(9-ethyl-6-(3-methylmorpholino)-9H-purin-2-yl)phenyl)urea, reference compound] |  |  |  | selectivity for mTOR kinase over related PI3 kinase (PI3K-alpha) (PI3K-alpha): 45 × |
| CCNC(=O)Nc1ccc(-c2nc(N3CCOC[C@@H]3C)c3c(ncn3C)n2)cc1 [Compound 102, (S)-1-ethyl-3-(4-(7-methyl-6-(3-methylmorpholino)-7H-purin-2-yl)phenyl)urea] | 0.294 µM |  |  |  |
| CCNC(=O)Nc1ccc(-c2nc(N3CCOC[C@@H]3C)c3c(ncn3CC)n2)cc1 [Compound 106, (S)-1-ethyl-3-(4-(7-ethyl-6-(3-methylmorpholino)-7H-purin-2-yl)phenyl)urea] |  |  | 0.04 µM | IC50 (PC3 cells; [4]): 4.2 µM; EC50 [2, 6]: 0.511 µM; selectivity for mTOR kinase over related PI3 kinase (PI3K-alpha) (PI3K-alpha): 250 × |
| C[C@H]1COCCN1c1nc(-c2ccc(NC(=O)NCCS(C)(=O)=O)cc2)nc2cnn(C)c12 [Compound 114, (S)-1-(4-(1-methyl-7-(3-methylmorpholino)-1H-pyrazolo[4,3-d]pyrimidin-5-yl)phenyl)-3-(2-(methylsulfonyl)ethyl)urea] |  | 0.145 µM |  |  |
